Experiment: Calcium Flux Assay: This assay was used to test compounds for their ability to inhibit TARP γ8 dependent AMPA receptor activity. The AMPA receptor is a non-selective cation channel activated by glutamate. lonotropic glutamate receptors normally desensitize too rapidly to allow detectable calcium influx in a FLIPR assay (Strange et al. (2006). “Functional characterisation of homomeric ionotropic glutamate receptors GluR1-GluR6 in a fluorescence-based high throughput screening assay.” Comb Chem High Throughput Screen 9(2): 147-158). But, this desensitization is incomplete, and a substantial steady-state current remains in the sustained presence of glutamate (Cho et al. (2007). “Two families of TARP isoforms that have distinct effects on the kinetic properties of AMPA receptors and synaptic currents.” Neuron 55(6): 890-904).An in vitro assay was used to determine the potency of test compounds as inhibitors of the glutamate response of the channel formed by GluA1o-g8. To ensure a 1:1 stoichiometry of GluA1o and g8 subunits in the expressed channel, a fusion of the cDNAs for GRIA1o and CACNG8 was used. Channels expressed with this construct appear to have similar properties to channels formed by co-expression of GRIA1o with an excess of CACNG8 (Shi et al. 2009). A clonal cell line in HEK293 cells stably expressing this construct, with a geneticin selection marker, was generated for use in this assay. Cell expressing the GRIAlo-CACNG8 fusion construct were grown in a monolayer in 96- or 384-well microtiter plates. They were washed with assay buffer (135 mM NaCl, 4 mM KCl, 3 mM CaCl2), 1 mM MgCl2, 5 mM glucose, 10 mM HEPES, pH 7.4, 300 mOs) using a Biotek EL405 plate washer. The cells were then loaded with a calcium-sensitive dye (Calcium-5 or Calcium-6, Molecular Devices) and the test compounds at a range of concentrations. Calcium flux following the addition of 15 μM glutamate was monitored using a Molecular Devices FLIPR Tetra.The fluorescence in each well was normalized to the fluorescence of negative and positive control wells. […]

Point of comparison: Cc1cccc(C)c1-c1ccc2[nH]c(=O)[nH]c2c1, IC50 158 nM. Against it:
- O=c1[nH]c2ccc(-c3c(Cl)cccc3OC(F)(F)F)cc2s1 — 63-fold lower, 2.51 nM
- O=c1[nH]c2ccc(-c3c(Cl)cccc3C3CC3)cc2[nH]1 — 25-fold lower, 6.31 nM
